Laboratory results as given in ChEMBL document CHEMBL3611967, “Molecular design and synthesis of certain new quinoline derivatives having potential anticancer activity” (Eur J Med Chem, 2015).

What was measured:
MCF7 = assay: Anticancer against human MCF7 cells assessed as tumor growth inhibition after 72 hrs by SRB assay; type: functional, cell-based; details: MCF7, 72 h
[1] = molecular target: T1, Epidermal growth factor receptor (Homo sapiens, UniProt P00533); assay: Inhibition of epidermal growth factor receptor kinase (unknown origin) using [33P]-ATP after 20 to 30 mins by radiometric assay
T1 sequence (P00533 whole entry): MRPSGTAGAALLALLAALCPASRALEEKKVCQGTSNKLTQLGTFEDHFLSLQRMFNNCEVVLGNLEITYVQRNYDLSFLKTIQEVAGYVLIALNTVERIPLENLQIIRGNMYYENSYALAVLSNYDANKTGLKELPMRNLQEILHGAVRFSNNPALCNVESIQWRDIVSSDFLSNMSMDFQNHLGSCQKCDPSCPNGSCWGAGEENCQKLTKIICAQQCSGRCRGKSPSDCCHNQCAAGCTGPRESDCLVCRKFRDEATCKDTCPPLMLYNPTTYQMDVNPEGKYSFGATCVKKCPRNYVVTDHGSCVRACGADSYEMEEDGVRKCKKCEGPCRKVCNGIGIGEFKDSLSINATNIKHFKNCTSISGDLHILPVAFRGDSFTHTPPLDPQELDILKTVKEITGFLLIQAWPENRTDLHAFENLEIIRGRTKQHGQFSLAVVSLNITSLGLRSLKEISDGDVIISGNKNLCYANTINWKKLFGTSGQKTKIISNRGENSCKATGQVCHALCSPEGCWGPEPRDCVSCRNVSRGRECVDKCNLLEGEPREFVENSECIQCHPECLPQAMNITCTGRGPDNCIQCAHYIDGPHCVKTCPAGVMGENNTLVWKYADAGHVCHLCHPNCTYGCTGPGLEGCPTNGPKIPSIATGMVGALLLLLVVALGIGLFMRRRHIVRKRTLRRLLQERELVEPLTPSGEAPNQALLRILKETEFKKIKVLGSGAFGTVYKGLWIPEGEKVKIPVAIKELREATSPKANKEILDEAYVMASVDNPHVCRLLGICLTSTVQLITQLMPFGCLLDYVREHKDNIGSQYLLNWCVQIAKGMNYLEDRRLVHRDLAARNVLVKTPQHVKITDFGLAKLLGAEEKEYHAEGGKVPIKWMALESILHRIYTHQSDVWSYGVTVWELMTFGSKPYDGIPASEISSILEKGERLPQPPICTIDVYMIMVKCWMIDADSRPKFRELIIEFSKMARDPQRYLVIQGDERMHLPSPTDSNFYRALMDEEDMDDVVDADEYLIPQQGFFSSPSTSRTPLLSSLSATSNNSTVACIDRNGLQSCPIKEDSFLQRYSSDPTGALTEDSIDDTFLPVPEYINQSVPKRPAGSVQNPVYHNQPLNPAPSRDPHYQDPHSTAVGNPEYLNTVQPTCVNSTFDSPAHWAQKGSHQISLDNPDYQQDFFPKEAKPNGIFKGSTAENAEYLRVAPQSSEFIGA

[2] = molecular target: T1, Epidermal growth factor receptor; assay: Inhibition of epidermal growth factor receptor kinase (unknown origin) using [33P]-ATP at 0.001 uM after 20 to 30 mins by radiometric assay
[3] = molecular target: T1, Epidermal growth factor receptor; assay: Inhibition of epidermal growth factor receptor kinase (unknown origin) using [33P]-ATP at 0.1 mM after 20 to 30 mins by radiometric assay

IC50 (MCF7) [µM]	Compound	also measured
62.2	Cc1ccc(Nc2c(C(N)=O)cnc3ccc(-c4csc(N)n4)cc23)cc1	
50.9	Cc1ccc(NC(=O)/C(C#N)=C\Nc2ccc(S(=O)(=O)Nc3cc(C)on3)cc2)cc1	
2.16	Cc1ccc(Nc2c(C(N)=O)cnc3ccc(C(=O)/C=C/c4ccc(N(C)C)cc4)cc23)cc1	
328	NC(=O)c1cnc2ccc(C(=O)/C=C/c3ccc(Cl)cc3)cc2c1Nc1ccc(Br)cc1	IC50 [1]: 4.82 µM; inhibition [2]: 0%; inhibition [3]: -3%
657	NC(=O)c1cnc2ccc(-c3csc(NC(=S)Nc4ccccc4)n3)cc2c1Nc1ccc(Br)cc1	
334	NC(=O)c1cnc2ccc(-c3csc(N)n3)cc2c1Nc1ccc(Br)cc1	
145	Cc1cc(NS(=O)(=O)c2ccc3ncc(C(N)=O)c(Nc4ccc(Cl)cc4)c3c2)no1	
28.4	Cc1cc(NS(=O)(=O)c2ccc(N/C=C(/C#N)C(=O)Nc3ccc(Cl)cc3)cc2)no1	
14	Cc1cc(NS(=O)(=O)c2ccc(N/C=C(/C#N)C(=O)Nc3ccc(Br)cc3)cc2)no1	
315	NC(=O)c1cnc2ccc(-c3csc(N)n3)cc2c1Nc1ccc(Cl)cc1	
120	Cc1ccc(Nc2c(C(N)=O)cnc3ccc(S(=O)(=O)Nc4cc(C)on4)cc23)cc1	
277	NC(=O)c1cnc2ccc(C(=O)/C=C/c3ccc(Cl)cc3)cc2c1Nc1ccc(Cl)cc1	
3.46	CN(C)c1ccc(/C=C/C(=O)c2ccc3ncc(C(N)=O)c(Nc4ccc(Cl)cc4)c3c2)cc1	IC50 [1]: 5.28 µM; inhibition [2]: 1%; inhibition [3]: 3%
	C=CC(=O)Nc1ccc2ncnc(Nc3cc(F)c(Cl)c(Cl)c3)c2c1	IC50 [1]: 3.7e-05 µM
33.7	Cc1cc(NS(=O)(=O)c2ccc3ncc(C(N)=O)c(Nc4ccc(Br)cc4)c3c2)no1	
51	CN(C)c1ccc(/C=C/C(=O)c2ccc3ncc(C(N)=O)c(Nc4ccc(Br)cc4)c3c2)cc1	
386	Cc1ccc(Nc2c(C(N)=O)cnc3ccc(-c4csc(NC(=S)Nc5ccccc5)n4)cc23)cc1	
41.2	Cc1ccc(Nc2c(C(N)=O)cnc3ccc(C(=O)/C=C/c4ccc(Cl)cc4)cc23)cc1	
326	NC(=O)c1cnc2ccc(-c3csc(NC(=S)Nc4ccccc4)n3)cc2c1Nc1ccc(Cl)cc1	
